Columns and labels:
[1] = system: 2D7 capture antibody; assay: Sandwich ELISA with conformation sensitive 2D7 capture and 1D4 detection antibodies; type: binding; settings: CCR5 from HEK-293 cells; 30 minutes at room temperature; sample 1 = DDM, CHAPS, DOPC/POPC
Method: The primary (capture) antibody was diluted to 1 μg/mL in 1×PBS pH 7.2 and 100 μL was added to each well of the microplate (Costar clear-bottom, black 96-well). The plate was stored overnight at 4° C. The plate wells were washed twice with PBS containing 0.05% Tween-20 and once with PBS and 200 μL of 10 mg/mL (1%) fatty-acid free BSA in PBS. The plate was either incubated at room temperature for 2 hours or overnight at 4° C. G-protein coupled receptor (GPCR)—NABBs were added to the respective wells in a final volume of 100 μL. GPCR-NABB was diluted in PBS containing 1 mg/mL (0.1%) BSA. The microplate was incubated at 4° C. overnight to ensure complete binding of epitope on the GPCR-NABB to the capture antibody. The analyte was then washed 3 times with 0.1% BSA-PBS using 200 μL per wash. […] The fluorescence in the wells was measured using a Cytofluor-II spectrofluorimeter with excitation at 530 nm and emission at 590 nm.
Conformational stability of the extracellular side of CCR5 after exposure to different detergents was determined by a sandwich ELISA using 2D7 and 1D4 antibodies. […] The amount of CCR5 bound to the 2D7 capture antibody was measured by detecting the binding of the second antibody-HRP-linked 1D4, and adding a fluorogenic HRP substrate in the microplate wells. […]

[2] = target: T1, CCR5 (Homo sapiens, UniProt P51681); assay: High-throughput G-protein activation assay (BODIPY-FL-GTPγS binding) with CCR5-NABBs; type: biochemical; settings: 50 nM RANTES, CCR5 in NABBs
T1 construct: made in house; host or cells: HEK-293 cells stably expressing CCR5, immunopurified on 1D4-sepharose
T1 sequence (P51681 whole entry): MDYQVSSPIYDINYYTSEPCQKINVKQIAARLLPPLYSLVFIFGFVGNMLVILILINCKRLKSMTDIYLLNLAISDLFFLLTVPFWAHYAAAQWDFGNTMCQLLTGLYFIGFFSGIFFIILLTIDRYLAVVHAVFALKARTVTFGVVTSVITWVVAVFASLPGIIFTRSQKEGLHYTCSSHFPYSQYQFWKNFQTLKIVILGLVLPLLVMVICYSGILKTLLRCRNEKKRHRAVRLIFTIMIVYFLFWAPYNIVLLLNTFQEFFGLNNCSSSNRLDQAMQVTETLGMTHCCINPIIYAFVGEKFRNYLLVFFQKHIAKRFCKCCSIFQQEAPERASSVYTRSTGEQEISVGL
Method: A black, C-bottom 96-well plate was used for the high-throughput G-protein activation assay. 25 μL of purified G protein or its subunits were added to the microplate wells from a […] protein stock. The added proteins were either Gi1α subunit, Gi1α with transducin βγ subunits, or holotransducin (Gt), with 25 μl of buffer G1 without GDP. […] 100 μL of CCR5-NABB solution with and without RANTES were added to the respective wells and the microplate incubated at room temperature for 15 minutes. 60 μL of BODIPY-FL-GTPγS was added from a 1 μM stock to all wells using a multi-channel pipettor. The plate was shaken for 30 seconds, covered and incubated at room temperature for 5 minutes. The fluorescence in the wells was recorded using a Cytofluor II microplate reader with excitation wavelength at 485 nm and 20 nm bandpass, emission wavelength at 530 nm and 25 nm bandpass. The gain was set to 95 and 15 reads were integrated for each well. The fluorescence values from the wells containing BODIPY-FL-GTPγS and no G protein was subtracted from the rest of the data as background. The fluorescence values from wells containing the CCR5-NABBs with no RANTES was subtracted from RANTES-containing wells to determine the RANTES-specific response.
CCR5 activation of G protein was measured by binding of a fluorescently labeled nucleotide analog BODIPY-FL-GTPγS. […]

Compound: CCCCCCCCCCCCO[C@@H]1O[C@H](CO)[C@@H](O[C@H]2O[C@H](CO)[C@@H](O)[C@H](O)[C@H]2O)[C@H](O)[C@H]1O [DDM, n-dodecyl-beta-D-maltopyranoside]
- 2D7/1D4 sandwich ELISA signal relative to sample 1 [1]: 65%

Compound: RANTES: ligand used to stimulate CCR5 in NABBs
- enhancement of B-GTPγS binding to the G protein, compared with unstimulated CCR5-NABBs [2]: up to 30%

Source: patent US8999320B2, “Nanoscale bound bilayers, methods of use and production” (The Rockefeller University, priority 2008, dated 2015)
